Results: patent US20060251574A1, “Cytotoxins and diagnostic imaging agents comprising hsp90 ligands” (priority 2002, published 2006)

Test system: HSP90
Method: Purified native HSP90 protein (Stressgen) or cell lysates prepared in lysis buffer (20 mM Hepes, pH 7.3, 1 mM EDTA, 5 mM MgCl2, 100 mM KCl) were incubated in the absence or presence of CF7 (17-AAG) or test compound for 15 min at 4° C. […] BioMag™ streptavidin magnetic beads were then added to the mixture, and the reaction was incubated by rotating for another 1 hr at 4° C. Tubes were placed on a magnetic rack, and the unbound supernatant removed. The magnetic beads were washed three times in lysis buffer, and the washes discarded. SDS-PAGE sample buffer was added to the beads and boiled for 5 min at 95° C. Samples were analyzed on 10% SDS protein gels (Novex), and then Western blots using anti-HSP90 monoclonal antibody (Stressgen SPA-830). The bands in the Western Blots were quantitated using the Bio-rad Fluor-S Imager, and the % inhibition of binding of CF7 or test compound calculated. The IC50 reported is the concentration of the compound needed to cause half-maximal inhibition of binding. For experiments that utilized shocked HSP90, the purified HSP90 native protein was incubated for 15 min at 90° C. For experiments that utilized bis-ANS treated HSP90, the purified HSP90 protein was incubated with bis-ANS (Molecular Probes) for 30 min at 37° C.

17-allylamino-geldanamycin [17-AAG]
apparent binding affinity for HSP90, tumor cells versus normal cells or purified HSP90 (FIG. 4) (BT474 lysate vs fibroblasts, RPTEC, purified HSP90): higher apparent binding affinity for HSP90 from tumor cells (BT474) than normal cells (fibroblasts, RPTEC) or purified HSP90 alone
apparent binding affinity for HSP90, high Her2 expressing cells versus normal cells, heat-shocked or bis-ANS treated HSP90 (FIG. 5) (SKOY-3, SKBR-3, N87 lysates): higher apparent binding affinity for HSP90 from the specific high Her2 expressing cells, SKOY-3, SKBR-3, and N87, than from normal cells, heat-shocked HSP90, or bis-ANS treated HSP90
